Where a SMILES comes first, the peptide text is derived from it. [ ]: non-standard residue; d: D form. pS = N[C@@H](COP(=O)(O)O)C(=O)O
Target: T1, 14-3-3 zeta (Homo sapiens, UniProt P63104)
T1 construct: made in house; host or cells: E. coli DH5α (vector pGEX-KT)
T1 sequence (P63104 1-245): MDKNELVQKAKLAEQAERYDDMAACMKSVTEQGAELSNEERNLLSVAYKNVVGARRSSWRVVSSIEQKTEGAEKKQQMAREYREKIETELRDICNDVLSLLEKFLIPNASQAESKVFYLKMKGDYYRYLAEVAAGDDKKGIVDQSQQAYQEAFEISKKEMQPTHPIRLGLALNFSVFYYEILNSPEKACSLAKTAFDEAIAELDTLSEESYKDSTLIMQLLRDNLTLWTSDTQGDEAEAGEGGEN
Experiment: SPR competitive inhibition of 14-3-3 zeta binding to chip-coupled phosphorylated Raf-259 peptide
Conditions: 14-3-3 zeta 0.5-1.0 μM; competitor 1-50 μM; relative affinity only
Protocol: The ability of each peptide to inhibit binding of 14-3-3 zeta to the phosphorylated peptide was then tested in a range of concentrations between 1 and 50 μM. 14-3-3 zeta was prepared according to the methods in Example 1 and binding affinities and specificities were determined using the peptides in Table 2. The 14-3-3 zeta fusion proteins (0.5-1.0 μM) were pre-incubated with a given peptide at concentrations between 1 μM and 50 μM. 14-3-3 zeta was then infused across a sensor chip surface which had been previously coupled with the phosphorylated Raf-259 peptide (SEQ ID NO: 4). IC50 values were determined by plotting the concentration of competitor peptide required to achieve a 50% reduction in equilibrium binding.

| IC50 [µM] | SMILES |
| --- | --- |
| 9 | CC(C)C[C@H](N)C(=O)N[C@@H](CO)C(=O)N[C@@H](CCC(N)=O)C(=O)N[C@@H](C)C(=O)N[C@@H](CCC(N)=O)C(=O)N[C@@H](CCCNC(=N)N)C(=O)N[C@@H](CO)C(=O)N[C@H](C(=O)N[C@@H](COP(=O)(O)O)C(=O)N[C@H](C(=O)N1CCC[C@H]1C(=O)N[C@@H](CC(N)=O)C(=O)N[C@H](C(=O)N[C@@H](Cc1c[nH]cn1)C(=O)N[C@@H](C)C(=O)O)C(C)C)[C@@H](C)O)[C@@H](C)O [Peptide 254RA] (H-LSQAQRST[pS]TPNVHA-OH) |
| 19 | CC(C)C[C@H](N)C(=O)N[C@@H](CO)C(=O)N[C@@H](CCC(N)=O)C(=O)N[C@@H](CCCNC(=N)N)C(=O)N[C@@H](CCC(N)=O)C(=O)N[C@@H](C)C(=O)N[C@@H](CO)C(=O)N[C@H](C(=O)N[C@@H](COP(=O)(O)O)C(=O)N[C@H](C(=O)N1CCC[C@H]1C(=O)N[C@@H](CC(N)=O)C(=O)N[C@H](C(=O)N[C@@H](Cc1c[nH]cn1)C(=O)N[C@@H](C)C(=O)O)C(C)C)[C@@H](C)O)[C@@H](C)O [Peptide 256RA] (H-LSQRQAST[pS]TPNVHA-OH) |
| > 50 | CC(C)C[C@H](N)C(=O)N[C@@H](CO)C(=O)N[C@@H](CCC(N)=O)C(=O)N[C@@H](C)C(=O)N[C@@H](CCC(N)=O)C(=O)N[C@@H](CO)C(=O)N[C@@H](CCCNC(=N)N)C(=O)N[C@H](C(=O)N[C@@H](COP(=O)(O)O)C(=O)N[C@H](C(=O)N1CCC[C@H]1C(=O)N[C@@H](CC(N)=O)C(=O)N[C@H](C(=O)N[C@@H](Cc1c[nH]cn1)C(=O)N[C@@H](C)C(=O)O)C(C)C)[C@@H](C)O)[C@@H](C)O [Peptide R-2] (H-LSQAQSRT[pS]TPNVHA-OH) |
| 11 | CC(C)C[C@H](N)C(=O)N[C@@H](CO)C(=O)N[C@@H](CCC(N)=O)C(=O)N[C@@H](C)C(=O)N[C@@H](CCCNC(=N)N)C(=O)N[C@@H](CCC(N)=O)C(=O)N[C@@H](CO)C(=O)N[C@H](C(=O)N[C@@H](COP(=O)(O)O)C(=O)N[C@H](C(=O)N1CCC[C@H]1C(=O)N[C@@H](CC(N)=O)C(=O)N[C@H](C(=O)N[C@@H](Cc1c[nH]cn1)C(=O)N[C@@H](C)C(=O)O)C(C)C)[C@@H](C)O)[C@@H](C)O [Peptide R-4] (H-LSQARQST[pS]TPNVHA-OH) |

Source: patent US6207393A, “Inhibition of intracellular signal transduction by 14-3-3-binding peptides” (Washington University, priority 1999, dated 2001)
